# Measured values: BindingDB's records for doi:10.1021/cb500828m (Vanderbilt University, 2015)
# Target: T1, Phospholipase D1 (Homo sapiens, UniProt Q13393)
# T1 sequence (Q13393 whole entry): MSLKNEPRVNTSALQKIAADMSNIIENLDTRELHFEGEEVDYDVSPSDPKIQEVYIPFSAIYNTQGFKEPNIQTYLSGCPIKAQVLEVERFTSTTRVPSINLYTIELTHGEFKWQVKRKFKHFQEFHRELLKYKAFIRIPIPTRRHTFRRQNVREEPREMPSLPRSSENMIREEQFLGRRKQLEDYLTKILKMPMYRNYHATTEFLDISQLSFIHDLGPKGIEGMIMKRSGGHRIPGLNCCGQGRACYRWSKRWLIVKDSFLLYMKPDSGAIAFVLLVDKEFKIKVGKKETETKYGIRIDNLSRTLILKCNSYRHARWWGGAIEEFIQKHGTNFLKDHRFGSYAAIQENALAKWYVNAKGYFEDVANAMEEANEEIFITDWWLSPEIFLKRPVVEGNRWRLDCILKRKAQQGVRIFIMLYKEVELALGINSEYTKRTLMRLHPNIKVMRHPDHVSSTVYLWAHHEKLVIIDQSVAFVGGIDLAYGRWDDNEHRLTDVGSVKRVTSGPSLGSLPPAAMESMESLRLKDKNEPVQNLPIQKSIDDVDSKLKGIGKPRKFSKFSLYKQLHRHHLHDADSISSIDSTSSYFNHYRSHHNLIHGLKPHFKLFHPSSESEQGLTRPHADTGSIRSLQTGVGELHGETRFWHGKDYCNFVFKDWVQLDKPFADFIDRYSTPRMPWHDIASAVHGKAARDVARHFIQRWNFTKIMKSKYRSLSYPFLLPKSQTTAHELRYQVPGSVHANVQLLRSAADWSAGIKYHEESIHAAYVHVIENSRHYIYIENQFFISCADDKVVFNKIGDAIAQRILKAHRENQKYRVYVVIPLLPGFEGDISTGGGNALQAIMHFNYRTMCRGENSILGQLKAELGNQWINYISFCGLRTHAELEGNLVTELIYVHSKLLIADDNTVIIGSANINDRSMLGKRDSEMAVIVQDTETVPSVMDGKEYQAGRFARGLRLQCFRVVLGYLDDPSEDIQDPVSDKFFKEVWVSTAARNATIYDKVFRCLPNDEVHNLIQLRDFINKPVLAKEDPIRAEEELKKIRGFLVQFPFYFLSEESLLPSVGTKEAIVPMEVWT
# Assay: In vivo Deuterated 1-Butanol PLD Assay
# Description: Cells were seeded into 12-well tissue culture plates to reach 90% confluence at the time of assay. All cell types, aside from the HEK293-gfpPLD2 cells, were serum-starved 18 h prior to experiment in DMEM, 0.5% FBS, 1% AA. Cells werepretreated in the presence of test compound (50 μM to 5 nM) or DMSO (vehicle control) in DMEM for 5 min at rt. After pretreatment, media was removed, and cells were treated with DMEM + 1 μM PMA + 0.3% 1-butanol-d10, and either test compound, DMSO vehicle control, or DMEM alone for 30 min at 37 °C. HEK293-gfpPLD2 cells were treated in the presence of DMEM + 0.3% 1-butanol-d10 and either test compound or DMSO but were not stimulated with PMA. After treatment, samples were extracted, and 1,2-dihexanoyl-snglycero-3-phosphomethanol ([…]) was added as an internal standard. The lipids were isolated, the solvent was evaporated, and the resulting lipid film was resuspended in MS solvent (9:1 methanol/chloroform + 1 μL of NH4OH). Samples were
structure (smiles),measurement,value
Oc1ccc(-c2sc3cc(O)ccc3c2-c2ccc(OCCN3CCCCC3)cc2)cc1 [Desketoraloxifene (10)],IC50,6.1 µM
